# Source: patent publication US20030207432A1, “Remedies for intractable wound” (Fujisawa Pharmaceutical Co., Ltd.,, priority 1999, published 2003)
# Entries after “also recorded” stand apart in the source; their conditions may differ.
# What was measured:
# [1] = tested on: foot ulcer induced by acetic acid; experiment: Diabetic rat foot ulcer curing action (STZ diabetic rats, foot ulcer induced by acetic acid); format: in vivo; details: for Ulcer area after administration of acetic acid / Swelling score after administration of acetic acid: diabetic rat, 0.2% in PEG400 applied, average, n=6; for Swelling score after administration of acetic acid: score 0-3
# Protocol: (§1) The action of the compound (applied) in accordance with this invention on a foot ulcer induced by acetic acid was examined by using normal and diabetic rats. Diabetes was induced in each of a seven-week-old male SD rats by intravenously administrating 60 mg/kg streptozotocin (STZ) to its tail. Fourteen days after the administration of STZ, 20 μl glacial acetic acid was administered into the skin of the left foot instep of each of the diabetic rats and control rats of the same age while anesthetized using ether, thereby causing necrosis at the portion. In the case when the necrotic cuticle of the skin remained two days after the necrosis, the cuticle was removed surgically. Then, the administration of FR136706 (0.2% solution in PEG (polyethylene glycol) 400) was started (50 μl to the affected portion). PEG400 was administered to the control group in a similar way. In a period between two days and 25 days after the administration of acetic acid, swelling scores (0: no swelling, 1: slight swelling, 2: intermediate swelling, 3: significant swelling) was checked visually, and the major axis length and the minor axis length of each ulcer was measured with vernier calipers. The area of each ulcer was calculated from the major axis length and the minor axis length thereof.
# [2] = tested on: foot ulcer induced by acetic acid; experiment: Foot ulcer induced by acetic acid, normal rats (applied FR136706); format: in vivo, rat; details: for Ulcer area after administration of acetic acid / Swelling score after administration of acetic acid: normal rat, 0.2% in PEG400 applied, average, n=6; for Swelling score after administration of acetic acid: score 0-3
# Protocol: as §1
# [3] = qualitative, by solvent; known properties from earlier filings; cited from earlier work
# [4] = diabetic rats, 0.2% solution in PEG400 applied
# [5] = normal rats, 0.2% solution in PEG400 applied
compound,measurement,setting,value
"CC(C)C(NC(=O)[C@@H]1CCCN1C(=O)[C@@H](NC(=O)c1ccc(C(=O)NCC(=O)[O-])cc1)C(C)C)C(=O)C(F)(F)F.[Na+] (mixture of isomers) [FR136706, Sodium salt of 3(RS)-[[4-(carboxymethylaminocarbonyl)phenylcarbonyl]-L-valyl-L-prolyl]amino-1,1,1-trifluoro-4-methyl-2-oxopentane]",Ulcer area after administration of acetic acid,[1]; after 2 days,69.17 mm^2
same,Swelling score after administration of acetic acid,[1]; after 2 days,2.2
same,Ulcer area after administration of acetic acid,[1]; after 8 days,91.77 mm^2
same,Swelling score after administration of acetic acid,[1]; after 8 days,2.8
same,Ulcer area after administration of acetic acid,[1]; after 11 days,72.38 mm^2
same,Swelling score after administration of acetic acid,[1]; after 11 days,2.5
same,Ulcer area after administration of acetic acid,[1]; after 15 days,41.00 mm^2
same,Swelling score after administration of acetic acid,[1]; after 15 days,1.5
same,Ulcer area after administration of acetic acid,[1]; after 18 days,16.10 mm^2
same,Swelling score after administration of acetic acid,[1]; after 18 days,1.5
same,Ulcer area after administration of acetic acid,[1]; after 22 days,12.08 mm^2
same,Swelling score after administration of acetic acid,[1]; after 22 days,1.2
same,Ulcer area after administration of acetic acid,[1]; after 25 days,6.99 mm^2
same,Swelling score after administration of acetic acid,"[1]; after 25 days, & significant at 5% vs PEG400 diabetic group",0.7
same,Effect on contraction of ulcer areas (in words),[1]; [4],tended to promote the contraction of the ulcer areas of the diabetic rats
same,Effect on recovery of swelling scores (in words),[1]; [4],promoted the recovery of the diabetic rats
same,Ulcer area after administration of acetic acid,[2]; after 2 days,58.37 mm^2
same,Swelling score after administration of acetic acid,[2]; after 2 days,2.5
same,Ulcer area after administration of acetic acid,[2]; after 8 days,71.42 mm^2
same,Swelling score after administration of acetic acid,[2]; after 8 days,2.0
same,Ulcer area after administration of acetic acid,[2]; after 11 days,53.21 mm^2
same,Swelling score after administration of acetic acid,[2]; after 11 days,1.5
same,Ulcer area after administration of acetic acid,[2]; after 15 days,18.32 mm^2
same,Swelling score after administration of acetic acid,[2]; after 15 days,1.0
same,Ulcer area after administration of acetic acid,[2]; after 18 days,0.69 mm^2
same,Swelling score after administration of acetic acid,[2]; after 18 days,0.5
same,Ulcer area after administration of acetic acid,[2]; after 22 days,0.00 mm^2
same,Swelling score after administration of acetic acid,[2]; after 22 days,0.0
same,Ulcer area after administration of acetic acid,[2]; after 25 days,0.00 mm^2
same,Swelling score after administration of acetic acid,[2]; after 25 days,0.0
same,Effect on contraction of ulcer areas (in words),[2]; [5],did not act on the normal rats
same,Effect on recovery of swelling scores (in words),[2]; [5],did not act on the normal rats
Dipotassium salt of the WS7622A disulfate ester,Solubility,[3],"soluble: water, methanol; also recorded: insoluble: chloroform, n-hexane"
Disodium salt of WS7622A disulfate ester,Solubility,[3],"soluble: water, methanol; also recorded: insoluble: chloroform, n-hexane"
